Assay results published in the supplement of paper PMC10307832.

Assays:
Experiment in all cases: relative viability (nuclei count vs DMSO), 5 days (fraction); higher = more cells survive
QS11 + Vorinostat = compound: C1CC2=C(C1)C=C(C=C2)OC3=NC(=C4C(=N3)N(C=N4)CC5=CC=C(C=C5)C6=CC=CC=C6)N[C@@H](CC7=CC=CC=C7)CO [QS11] + O=C(CCCCCCC(=O)Nc1ccccc1)NO [Vorinostat] (partner 1 µM)
Procedure, shortened: (§1)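 Relative viability is defined as nuclei in treated wells over nuclei in vehicle wells. Duplicate plates were run and medians reported. Lung cancer cell lines in 1536-well plates were dosed by pin tool one day after seeding, with one drug or with a fixed anchor-drug dose plus five library-drug doses (not always all listed) in √10 steps, and nuclei were counted after 5 days.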

Darinaparsin + OSI-027 = compound: C[As](C)SC[C@H](NC(=O)CC[C@H](N)C(=O)O)C(=O)NCC(=O)O [Darinaparsin] + COc1cccc2cc(-c3nc([C@H]4CC[C@H](C(=O)O)CC4)n4ncnc(N)c34)[nH]c12 [OSI-027] (partner 0.5 µM)
Procedure, shortened: as §1

[1] = compound: C[As](C)SC[C@H](NC(=O)CC[C@H](N)C(=O)O)C(=O)NCC(=O)O [Darinaparsin] + C[C@@H](Oc1cc(-c2cnn(C3CCNCC3)c2)cnc1N)c1c(Cl)ccc(F)c1Cl [Crizotinib] (partner 1 µM)
Procedure, shortened: as §1

## NCI-H1734
QS11 + Vorinostat; first compound 0.08 µM
  relative viability: 0.79
QS11 + Vorinostat; first compound 0.253 µM
  relative viability: 0.82
QS11 + Vorinostat; first compound 0.8 µM
  relative viability: 0.779
QS11 + Vorinostat; first compound 2.53 µM
  relative viability: 0.792
QS11 + Vorinostat; first compound 8 µM
  relative viability: 0.672
Darinaparsin + OSI-027; first compound 0.08 µM
  relative viability: 0.684
Darinaparsin + OSI-027; first compound 0.8 µM
  relative viability: 0.595
Darinaparsin + OSI-027; first compound 2.53 µM
  relative viability: 0.621
Darinaparsin + OSI-027; first compound 8 µM
  relative viability: 0.739
[1]; first compound 0.08 µM
  relative viability: 0.892
[1]; first compound 0.8 µM
  relative viability: 0.724
[1]; first compound 2.53 µM
  relative viability: 0.686
[1]; first compound 8 µM
  relative viability: 0.736

## NCI-H1755
QS11 + Vorinostat; first compound 0.08 µM
  relative viability: 0.748
QS11 + Vorinostat; first compound 0.253 µM
  relative viability: 0.714
QS11 + Vorinostat; first compound 0.8 µM
  relative viability: 0.605
QS11 + Vorinostat; first compound 2.53 µM
  relative viability: 0.515
QS11 + Vorinostat; first compound 8 µM
  relative viability: 0.655
Darinaparsin + OSI-027; first compound 0.08 µM
  relative viability: 0.725
Darinaparsin + OSI-027; first compound 0.8 µM
  relative viability: 0.691
Darinaparsin + OSI-027; first compound 2.53 µM
  relative viability: 0.686
Darinaparsin + OSI-027; first compound 8 µM
  relative viability: 0.841
[1]; first compound 0.08 µM
  relative viability: 1.08
[1]; first compound 0.8 µM
  relative viability: 0.827
[1]; first compound 2.53 µM
  relative viability: 0.807
[1]; first compound 8 µM
  relative viability: 1.12

## NCI-H1915
QS11 + Vorinostat; first compound 0.08 µM
  relative viability: 0.522
QS11 + Vorinostat; first compound 0.253 µM
  relative viability: 0.528
QS11 + Vorinostat; first compound 2.53 µM
  relative viability: 0.467
QS11 + Vorinostat; first compound 8 µM
  relative viability: 0.391
Darinaparsin + OSI-027; first compound 0.08 µM
  relative viability: 0.741
Darinaparsin + OSI-027; first compound 0.8 µM
  relative viability: 0.649
Darinaparsin + OSI-027; first compound 2.53 µM
  relative viability: 0.644
Darinaparsin + OSI-027; first compound 8 µM
  relative viability: 0.749
[1]; first compound 0.08 µM
  relative viability: 1.06
[1]; first compound 0.8 µM
  relative viability: 0.839
[1]; first compound 2.53 µM
  relative viability: 0.795
[1]; first compound 8 µM
  relative viability: 1.13

## NCI-H1944
QS11 + Vorinostat; first compound 0.08 µM
  relative viability: 0.485
QS11 + Vorinostat; first compound 0.253 µM
  relative viability: 0.491
QS11 + Vorinostat; first compound 2.53 µM
  relative viability: 0.424
QS11 + Vorinostat; first compound 8 µM
  relative viability: 0.505
Darinaparsin + OSI-027; first compound 0.08 µM
  relative viability: 0.413
Darinaparsin + OSI-027; first compound 0.8 µM
  relative viability: 0.372
Darinaparsin + OSI-027; first compound 2.53 µM
  relative viability: 0.399
Darinaparsin + OSI-027; first compound 8 µM
  relative viability: 0.437
[1]; first compound 0.08 µM
  relative viability: 1.39
[1]; first compound 0.8 µM
  relative viability: 1.1
[1]; first compound 2.53 µM
  relative viability: 1.05
[1]; first compound 8 µM
  relative viability: 1.27

## NCI-H1975
QS11 + Vorinostat; first compound 0.08 µM
  relative viability: 0.669
QS11 + Vorinostat; first compound 0.253 µM
  relative viability: 0.783
QS11 + Vorinostat; first compound 0.8 µM
  relative viability: 0.752
QS11 + Vorinostat; first compound 2.53 µM
  relative viability: 0.795
QS11 + Vorinostat; first compound 8 µM
  relative viability: 0.654
Darinaparsin + OSI-027; first compound 0.08 µM
  relative viability: 0.971
Darinaparsin + OSI-027; first compound 0.8 µM
  relative viability: 0.742
Darinaparsin + OSI-027; first compound 2.53 µM
  relative viability: 0.544
Darinaparsin + OSI-027; first compound 8 µM
  relative viability: 0.961
[1]; first compound 0.08 µM
  relative viability: 1.13
[1]; first compound 0.8 µM
  relative viability: 1.12
[1]; first compound 2.53 µM
  relative viability: 0.879
[1]; first compound 8 µM
  relative viability: 1.42

## NCI-H1993
QS11 + Vorinostat; first compound 0.08 µM
  relative viability: 0.972
QS11 + Vorinostat; first compound 0.253 µM
  relative viability: 0.629
QS11 + Vorinostat; first compound 0.8 µM
  relative viability: 0.776
QS11 + Vorinostat; first compound 2.53 µM
  relative viability: 0.983
QS11 + Vorinostat; first compound 8 µM
  relative viability: 0.498
Darinaparsin + OSI-027; first compound 0.08 µM
  relative viability: 0.542
Darinaparsin + OSI-027; first compound 0.8 µM
  relative viability: 0.527
Darinaparsin + OSI-027; first compound 2.53 µM
  relative viability: 0.493
Darinaparsin + OSI-027; first compound 8 µM
  relative viability: 0.551
[1]; first compound 0.08 µM
  relative viability: 0.979
[1]; first compound 0.8 µM
  relative viability: 0.834
[1]; first compound 2.53 µM
  relative viability: 0.82
[1]; first compound 8 µM
  relative viability: 0.774

## NCI-H2009
QS11 + Vorinostat; first compound 0.08 µM
  relative viability: 0.757
QS11 + Vorinostat; first compound 0.253 µM
  relative viability: 0.699
QS11 + Vorinostat; first compound 0.8 µM
  relative viability: 0.635
QS11 + Vorinostat; first compound 2.53 µM
  relative viability: 0.707
QS11 + Vorinostat; first compound 8 µM
  relative viability: 0.603
Darinaparsin + OSI-027; first compound 0.08 µM
  relative viability: 0.61
Darinaparsin + OSI-027; first compound 0.8 µM
  relative viability: 0.657
Darinaparsin + OSI-027; first compound 2.53 µM
  relative viability: 0.584
Darinaparsin + OSI-027; first compound 8 µM
  relative viability: 0.587
[1]; first compound 0.08 µM
  relative viability: 1.09
[1]; first compound 0.8 µM
  relative viability: 0.991
[1]; first compound 2.53 µM
  relative viability: 0.953
[1]; first compound 8 µM
  relative viability: 1.02

## NCI-H2023
QS11 + Vorinostat; first compound 0.08 µM
  relative viability: 0.417
QS11 + Vorinostat; first compound 0.253 µM
  relative viability: 0.655
QS11 + Vorinostat; first compound 0.8 µM
  relative viability: 0.527
QS11 + Vorinostat; first compound 2.53 µM
  relative viability: 0.759
QS11 + Vorinostat; first compound 8 µM
  relative viability: 0.318
Darinaparsin + OSI-027; first compound 0.08 µM
  relative viability: 0.483
Darinaparsin + OSI-027; first compound 0.8 µM
  relative viability: 0.364
Darinaparsin + OSI-027; first compound 2.53 µM
  relative viability: 0.33
Darinaparsin + OSI-027; first compound 8 µM
  relative viability: 0.486
[1]; first compound 0.08 µM
  relative viability: 0.745
[1]; first compound 0.8 µM
  relative viability: 0.636
[1]; first compound 2.53 µM
  relative viability: 0.56
[1]; first compound 8 µM
  relative viability: 0.754

## NCI-H2085
QS11 + Vorinostat; first compound 0.08 µM
  relative viability: 0.743
QS11 + Vorinostat; first compound 0.253 µM
  relative viability: 0.72
QS11 + Vorinostat; first compound 0.8 µM
  relative viability: 0.699
QS11 + Vorinostat; first compound 2.53 µM
  relative viability: 0.912
QS11 + Vorinostat; first compound 8 µM
  relative viability: 0.806
Darinaparsin + OSI-027; first compound 0.08 µM
  relative viability: 0.778
Darinaparsin + OSI-027; first compound 0.8 µM
  relative viability: 0.806
Darinaparsin + OSI-027; first compound 2.53 µM
  relative viability: 0.762
Darinaparsin + OSI-027; first compound 8 µM
  relative viability: 0.673
[1]; first compound 0.08 µM
  relative viability: 0.936
[1]; first compound 0.8 µM
  relative viability: 0.858
[1]; first compound 2.53 µM
  relative viability: 0.768
[1]; first compound 8 µM
  relative viability: 0.9

## NCI-H2087
QS11 + Vorinostat; first compound 0.08 µM
  relative viability: 1.03
QS11 + Vorinostat; first compound 0.253 µM
  relative viability: 0.667
QS11 + Vorinostat; first compound 0.8 µM
  relative viability: 0.599
QS11 + Vorinostat; first compound 2.53 µM
  relative viability: 0.625
QS11 + Vorinostat; first compound 8 µM
  relative viability: 0.665
Darinaparsin + OSI-027; first compound 0.08 µM
  relative viability: 0.604
Darinaparsin + OSI-027; first compound 0.8 µM
  relative viability: 0.67
Darinaparsin + OSI-027; first compound 2.53 µM
  relative viability: 0.527
Darinaparsin + OSI-027; first compound 8 µM
  relative viability: 0.705
[1]; first compound 0.08 µM
  relative viability: 1.04
[1]; first compound 0.8 µM
  relative viability: 0.911
[1]; first compound 2.53 µM
  relative viability: 0.889
[1]; first compound 8 µM
  relative viability: 1.11

## NCI-H2126
QS11 + Vorinostat; first compound 0.08 µM
  relative viability: 0.801
QS11 + Vorinostat; first compound 0.253 µM
  relative viability: 0.777
QS11 + Vorinostat; first compound 0.8 µM
  relative viability: 0.717
QS11 + Vorinostat; first compound 2.53 µM
  relative viability: 0.732
QS11 + Vorinostat; first compound 8 µM
  relative viability: 0.661
Darinaparsin + OSI-027; first compound 0.08 µM
  relative viability: 0.726
Darinaparsin + OSI-027; first compound 0.8 µM
  relative viability: 0.764
Darinaparsin + OSI-027; first compound 2.53 µM
  relative viability: 0.635
Darinaparsin + OSI-027; first compound 8 µM
  relative viability: 0.639
[1]; first compound 0.08 µM
  relative viability: 1.14
[1]; first compound 0.8 µM
  relative viability: 1.01
[1]; first compound 2.53 µM
  relative viability: 0.93
[1]; first compound 8 µM
  relative viability: 1.12
